Experimental data reported in ChEMBL document CHEMBL5029183 (J Med Chem, 2021).
Active and inactive are the calls of the source.

Tests used:
Mus musculus [1] = assay: Antinociceptive tolerance in Kunming mouse pretreated with compound for 3 hrs followed by challenge with second dose of compound at 20 nmol, icv and measured after 2 to 2.5 hrs by radiant heat paw withdrawal test; type: functional, organism-based; details: time lower 5.0 hrs, time upper […]
Mus musculus [2] = organism: Mus musculus; assay: Antinociceptive tolerance in Kunming mouse pretreated with 3 times ED50 of compound for 2 hrs followed by challenge with second dose of compound by radiant heat paw withdrawal test; type: functional
Mus musculus [3] = assay: Antinociceptive activity in Kunming mouse model assessed as increase in paw withdrawal latency at 20 nmol, icv pretreated for 20 mins with NTI followed by compound addition and measured upto 10 mins by radiant heat paw withdrawal assay; type: functional, organism-based; details: time min <=10
Mus musculus [4] = assay: Chronic antinociceptive tolerance in Kunming mouse pretreated with compound followed by repeated compound addition at 10 micromol/kg, sc once daily for 7 days and measured after 10 mins by radiant heat paw withdrawal test; type: functional, organism-based; details: dose 10.0 µmol/kg, time 7.0 day
Mus musculus [5] = assay: Antiallodynic activity in Kunming mouse model of CFA-induced inflammatory pain assessed as increase in ipsilateral withdrawal threshold at 0.67 to 6.7 nmol, icv by von Frey test; type: functional, organism-based; details: dose 0.67-6.7 nmol, time 10-50 min, TDE = time-dependent effect
[6] = Metabolic stability in Kunming mouse serum assessed as half life measured upto 480 mins by RP-HPLC analysis; type: ADME, cell-free
Rattus norvegicus = organism: Rattus norvegicus; assay: Selectivity index, ratio of Ki for displacement of [3H]DPDPE from DOR in Wistar rat brain membranes to Ki for displacement of [3H]DAMGO from MOR in Wistar rat brain membranes; type: cell membranes
[7] = Toxicity in Kunming mouse model assessed as conditioned place preference time at 20 nmol, icv; details: in vivo, icv_or_intrathecal
Mus musculus [8] = assay: Antinociceptive activity in Kunming mouse model assessed as increase in paw withdrawal latency at 10 micromol/kg, sc by radiant heat paw withdrawal assay; type: functional, organism-based; details: dose 10.0 µmol/kg
Mus musculus [9] = organism: Mus musculus; assay: Antinociceptive tolerance in Kunming mouse pretreated with saline for 2 hrs followed by compound addition by radiant heat paw withdrawal test; type: functional
Mus musculus [10] = assay: Antiallodynic activity in Kunming mouse model of spared nerve injury-induced neuropathic pain assessed as increase in paw withdrawal threshold at 10 micromol/kg, sc measured at 10 to 50 mins by von Frey test; type: functional, organism-based; details: dose 10.0 µmol/kg, time 10-50 min
Mus musculus [11] = organism: Mus musculus; assay: Tolerance ratio of ED50 for Kunming mouse pretreated with 3 times ED50 of compound for 2 hrs followed by challenge with second dose of compound to ED50 for Kunming mouse pretreated with saline for 2 hrs followed by compound addition; type: functional
[12] = target: Delta-type opioid receptor (Homo sapiens) (UniProt P41143); assay: Agonist activity at delta-opioid receptor (unknown origin) expressed in HEK293 cells assessed as inhibition of forskolin-induced cAMP accumulation incubated for 15 mins by ELISA; type: functional, cell-based
Mus musculus [13] = assay: Antinociceptive activity in Kunming mouse model assessed as increase in paw withdrawal latency at 10 micromol/kg, sc pretreated with sc dosed naloxone methiodide for 5 mins followed by compound addition by radiant heat paw withdrawal assay; type: functional, organism-based; details: dose 10.0 µmol/kg
Mus musculus [14] = assay: Antinociceptive activity in Kunming mouse model assessed as increase in paw withdrawal latency at 10 micromol/kg, sc pretreated with icv dosed naloxone methiodide for 5 mins followed by compound addition by radiant heat paw withdrawal assay; type: functional, organism-based; details: dose 10.0 µmol/kg
Mu-type opioid receptor [15] = target: T1, Mu-type opioid receptor (Homo sapiens, UniProt P35372); assay: Agonist activity at mu-opioid receptor (unknown origin) expressed in HEK293 cells assessed as inhibition of forskolin-induced cAMP accumulation incubated for 15 mins by ELISA relative to control; type: functional, cell-based; details: filed as agonist
Mus musculus [16] = assay: Antinociceptive activity in Kunming mouse model assessed as increase in paw withdrawal latency at 0.67 to 20 nmol, icv by radiant heat paw withdrawal assay; type: functional, organism-based; details: dose 0.67-20 nmol, TDE = time-dependent effect
Mus musculus [17] = assay: Antinociceptive activity in Kunming mouse model assessed as increase in paw withdrawal latency at 10 micromol/kg, sc pretreated with icv dosed naloxone for 5 mins followed by compound addition by radiant heat paw withdrawal assay; type: functional, organism-based; details: dose 10.0 µmol/kg
Ileum = assay: Inhibition of electric-field induced guinea pig ileum contraction; type: functional, tissue-based; details: Cavia porcellus
Mus musculus [18] = assay: Antinociceptive tolerance in Kunming mouse pretreated with compound for 3 hrs followed by challenge with second dose of compound at 20 nmol, icv and measured after 3 hrs by radiant heat paw withdrawal test; type: functional, organism-based; details: time 6.0 hrs
Mus musculus [19] = assay: Antiallodynic activity in Kunming mouse model of spared nerve injury-induced neuropathic pain assessed as increase in paw withdrawal threshold at 0.67 to 6.7 nmol, icv at 10 mins by von Frey test; type: functional, organism-based; details: dose 0.67-6.7 nmol
Mus musculus [20] = assay: Antiallodynic activity in Kunming mouse model of CFA-induced inflammatory pain assessed as increase in ipsilateral withdrawal threshold at 0.67 to 6.7 nmol, icv measured at 10 to 50 mins by von Frey test; type: functional, organism-based; details: dose 0.67-6.7 nmol, time 10-50 min
Mus musculus [21] = assay: Antiallodynic activity in icv dosed Kunming mouse model of spared nerve injury-induced neuropathic pain assessed as increase in ipsilateral withdrawal threshold by von Frey test; type: functional, organism-based; details: dose 0.67-6.7 nmol
[22] = Metabolic stability in Kunming mouse brain assessed as half life measured upto 480 mins by RP-HPLC analysis; type: ADME, tissue-based
[23] = Toxicity in Kunming mouse assessed as effect on motor coordination at 10 micromol/kg, sc by rotarod test; type: organism-based; details: in vivo, dose 10 µmol/kg
[24] = Toxicity in Kunming mouse model assessed as conditioned place preference time at 10 micromol/kg, sc; details: in vivo, dose 10 µmol/kg
[25] = Toxicity in Kunming mouse assessed as effect on motor coordination at 20 nmol, icv by rotarod test; details: in vivo, icv_or_intrathecal
Mus musculus [26] = assay: Antinociceptive activity in Kunming mouse model assessed as increase in paw withdrawal latency at 20 nmol, icv pretreated for 10 mins with naloxone followed by compound addition and measured upto 10 mins by radiant heat paw withdrawal assay; type: functional, organism-based; details: time min <=10
Mus musculus [27] = assay: Antiallodynic activity in icv dosed Kunming mouse model of spared nerve injury-induced neuropathic pain assessed as increase in paw withdrawal threshold measured upto 50 mins by von Frey test; type: functional, organism-based; details: dose 0.67-6.7 nmol, time min <=50
Mu-type opioid receptor [28] = target: T1, Mu-type opioid receptor; assay: Agonist activity at mu-opioid receptor (unknown origin) expressed in HEK293 cells assessed as inhibition of forskolin-induced cAMP accumulation incubated for 15 mins by ELISA; type: functional, cell-based
Mus musculus [29] = assay: Antinociceptive activity in Kunming mouse model assessed as increase in paw withdrawal latency at 20 nmol, icv pretreated for 4 hrs with beta-FNA followed by compound addition and measured upto 10 mins by radiant heat paw withdrawal assay; type: functional, organism-based; details: time min <=10
Mus musculus [30] = assay: Antinociceptive activity in Kunming mouse model assessed as increase in paw withdrawal latency at 0.67 to 20 nmol, icv measured after 10 mins by radiant heat paw withdrawal assay; type: functional, organism-based; details: dose 0.67-20 nmol
Mus musculus [31] = assay: Antiallodynic activity in Kunming mouse model of CFA-induced inflammatory pain assessed as increase in ipsilateral withdrawal threshold at 10 micromol/kg, sc measured at 10 to 50 mins by von Frey test; type: functional, organism-based; details: dose 10.0 µmol/kg, time 10-50 min
Mus musculus [32] = assay: Antiallodynic activity in icv dosed Kunming mouse model of CFA-induced inflammatory pain assessed as increase in ipsilateral withdrawal threshold measured upto 50 mins by von Frey test; type: functional, organism-based; details: dose 0.67-6.7 nmol, time min <=50
Mus musculus [33] = assay: Antinociceptive activity in Kunming mouse model assessed as increase in paw withdrawal latency at 10 micromol/kg, sc at 10 to 90 mins by radiant heat paw withdrawal assay; type: functional, organism-based; details: dose 10.0 µmol/kg, time 10-90 min
Mus musculus [34] = assay: Antinociceptive activity in Kunming mouse model assessed as increase in paw withdrawal latency at 10 micromol/kg, sc pretreated with sc dosed naloxone for 5 mins followed by compound addition by radiant heat paw withdrawal assay; type: functional, organism-based; details: dose 10.0 µmol/kg

T1 sequence (P35372 whole entry): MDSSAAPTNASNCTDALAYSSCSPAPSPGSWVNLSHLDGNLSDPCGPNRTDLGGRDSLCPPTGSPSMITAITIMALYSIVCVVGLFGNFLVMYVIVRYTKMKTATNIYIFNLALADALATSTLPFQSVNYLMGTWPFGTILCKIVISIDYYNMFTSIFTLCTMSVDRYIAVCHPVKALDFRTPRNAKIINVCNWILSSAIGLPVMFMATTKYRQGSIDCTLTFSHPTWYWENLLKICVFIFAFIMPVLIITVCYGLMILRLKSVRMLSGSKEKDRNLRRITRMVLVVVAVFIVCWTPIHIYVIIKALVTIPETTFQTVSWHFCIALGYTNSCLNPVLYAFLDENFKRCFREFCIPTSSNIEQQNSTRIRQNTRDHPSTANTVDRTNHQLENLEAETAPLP
Chain of Delta-type opioid receptor (Homo sapiens) (P41143 whole entry): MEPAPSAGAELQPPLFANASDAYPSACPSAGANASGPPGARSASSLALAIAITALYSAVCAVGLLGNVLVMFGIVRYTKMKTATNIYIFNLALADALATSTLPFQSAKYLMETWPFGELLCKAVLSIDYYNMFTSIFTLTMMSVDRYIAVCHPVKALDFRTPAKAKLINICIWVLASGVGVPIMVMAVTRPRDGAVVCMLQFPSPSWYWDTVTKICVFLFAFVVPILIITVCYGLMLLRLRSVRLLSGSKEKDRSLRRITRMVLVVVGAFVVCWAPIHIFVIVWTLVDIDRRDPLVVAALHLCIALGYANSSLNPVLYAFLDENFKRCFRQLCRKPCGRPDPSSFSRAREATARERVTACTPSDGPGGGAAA

SMILES | Activity (Mus musculus [1]) | ED50 (Mus musculus [2]) | Activity (Mus musculus [3]) | Activity (Mus musculus [4]) | Activity (Mus musculus [5]) | half-life [6] | Ratio Ki (Rattus norvegicus) | Time [7] | Activity (Mus musculus [8]) | ED50 (Mus musculus [9]) | Activity (Mus musculus [10]) | Ratio (Mus musculus [11]) | Activity [12] | Activity (Mus musculus [13]) | Activity (Mus musculus [14]) | Emax (Mu-type opioid receptor [15]) | Activity (Mus musculus [16]) | Activity (Mus musculus [17]) | IC50 (Ileum) | Activity (Mus musculus [18]) | further results
Cc1cc(O)cc(C)c1C[C@H](N)C(=O)N[C@H]1CSSC[C@@H](C(=O)NCC(=O)N[C@H](CCCNC(=N)N)C(=O)N[C@H](CCCNC(=N)N)C(=O)O)NC(=O)[C@H](Cc2ccc(Cl)cc2)NC(=O)[C@H](Cc2ccccc2)NC1=O | Active | 3.5 nmol | Active | inactive | Tde | 5.33 h | 705 | 450 s | Active | 2.3 nmol | Active | 1.5 | inactive | Active | inactive | 83.8% | Tde | inactive | 11.8 nM | inactive | Activity (Mus musculus [19]): Active; Activity (Mus musculus [20]): Active; Activity (Mus musculus [21]): Dose-Dependent Effect; half-life [22]: 7.13 h; Activity [23]: Non-Toxic; Time [24]: 453 s; Activity [25]: Non-Toxic; Activity (Mus musculus [26]): inactive; Activity (Mus musculus [27]): Dose-Dependent Effect; EC50 (Mu-type opioid receptor [28]): 14.3 nM; Activity (Mus musculus [29]): inactive; Activity (Mus musculus [30]): Active; Activity (Mus musculus [31]): Active; Activity (Mus musculus [32]): Dose-Dependent Effect; Activity (Mus musculus [33]): Active; Activity (Mus musculus [34]): inactive
Cc1cc(O)cc(C)c1C[C@H](N)C(=O)N[C@H]1CSSC[C@@H](C(=O)NCC(=O)N[C@H](CCCNC(=N)N)C(=O)N[C@H](CCCNC(=N)N)C(=O)O)NC(=O)[C@H](Cc2ccc(Cl)cc2)NC(=O)[C@H](Cc2c[nH]c3ccccc23)NC1=O | Active | 2.7 nmol | Active | inactive | Tde | 5.58 h | 361 | 447 s | Active | 2.2 nmol | Active | 1.2 | inactive | Active | inactive | 87.3% | Tde | inactive | 9.21 nM | inactive | Activity (Mus musculus [19]): Active; Activity (Mus musculus [20]): Active; Activity (Mus musculus [21]): Dose-Dependent Effect; half-life [22]: 7.48 h; Activity [23]: Non-Toxic; Time [24]: 453 s; Activity [25]: Non-Toxic; Activity (Mus musculus [26]): inactive; Activity (Mus musculus [27]): Dose-Dependent Effect; EC50 (Mu-type opioid receptor [28]): 13.6 nM; Activity (Mus musculus [29]): inactive; Activity (Mus musculus [30]): Active; Activity (Mus musculus [31]): Active; Activity (Mus musculus [32]): Dose-Dependent Effect; Activity (Mus musculus [33]): Active; Activity (Mus musculus [34]): inactive
